According to patent US9024044B2, “Heteroarylcarboxylic acid ester derivative” (Ajinomoto Co., Inc., priority 2012, dated 2015):
Structures can show the parent of a compound that is named as a salt.

Tests used:
[1] = molecular target: recombinant human enteropeptidase (Homo sapiens (Human), UniProt P98073); test: Measurement of enteropeptidase inhibitory activity; format: biochemical; settings: substrate Gly-Asp-Asp-Asp-Asp-Lys-β-Naphtylamide, Tris-HCl pH 8.0, Dixon plot
Procedure: Measurement of Enteropeptidase Inhibitory Activity
Using a 96 well plate (#3915, Costar), a test compound (25 μL), 400 mM Tris-HCl buffer (pH 8.0, 25 μL) and 0.5 mg/mL fluorescence enzyme substrate (Gly-Asp-Asp-Asp-Asp-Lys-β-Naphtylamide, 25 μL) were mixed, and recombinant human enteropeptidase (R&D Systems, Inc., 25 μL) was added. Using a fluorescence plate reader fmax (Molecular Devices, Inc.), the reaction rate was measured from the time-course changes at excitation wavelength 320 nm and fluorescence wavelength 405 nm. The Ki value was calculated from the concentration of the test compound, reciprocal of reaction rate, and Km value of the enzyme substrate, and by using Dixon plot.

human trypsin = human trypsin (Homo sapiens, UniProt P07477); test: Measurement of trypsin inhibitory activity; format: biochemical; settings: substrate Boc-Phe-Ser-Arg-AMC, Tris-HCl pH 8.0, Dixon plot
Procedure: Measurement of Trypsin Inhibitory Activity
Using a 96 well plate (#3915, Costar), a test compound (25 μL) was mixed with 20 μM fluorescence enzyme substrate (Boc-Phe-Ser-Arg-AMC, 50 μL) mixed with 200 mM Tris-HCl buffer (pH 8.0), and human trypsin (Sigma, 25 μL) was added. Using a fluorescence plate reader fmax (Molecular Devices, Inc.), the reaction rate was measured from the time-course changes at excitation wavelength 355 nm and fluorescence wavelength 460 nm. The Ki value was calculated from the concentration of the test compound, reciprocal of reaction rate, and Km value of the enzyme substrate, and by using Dixon plot.

Sequence of recombinant human enteropeptidase (P98073 whole entry): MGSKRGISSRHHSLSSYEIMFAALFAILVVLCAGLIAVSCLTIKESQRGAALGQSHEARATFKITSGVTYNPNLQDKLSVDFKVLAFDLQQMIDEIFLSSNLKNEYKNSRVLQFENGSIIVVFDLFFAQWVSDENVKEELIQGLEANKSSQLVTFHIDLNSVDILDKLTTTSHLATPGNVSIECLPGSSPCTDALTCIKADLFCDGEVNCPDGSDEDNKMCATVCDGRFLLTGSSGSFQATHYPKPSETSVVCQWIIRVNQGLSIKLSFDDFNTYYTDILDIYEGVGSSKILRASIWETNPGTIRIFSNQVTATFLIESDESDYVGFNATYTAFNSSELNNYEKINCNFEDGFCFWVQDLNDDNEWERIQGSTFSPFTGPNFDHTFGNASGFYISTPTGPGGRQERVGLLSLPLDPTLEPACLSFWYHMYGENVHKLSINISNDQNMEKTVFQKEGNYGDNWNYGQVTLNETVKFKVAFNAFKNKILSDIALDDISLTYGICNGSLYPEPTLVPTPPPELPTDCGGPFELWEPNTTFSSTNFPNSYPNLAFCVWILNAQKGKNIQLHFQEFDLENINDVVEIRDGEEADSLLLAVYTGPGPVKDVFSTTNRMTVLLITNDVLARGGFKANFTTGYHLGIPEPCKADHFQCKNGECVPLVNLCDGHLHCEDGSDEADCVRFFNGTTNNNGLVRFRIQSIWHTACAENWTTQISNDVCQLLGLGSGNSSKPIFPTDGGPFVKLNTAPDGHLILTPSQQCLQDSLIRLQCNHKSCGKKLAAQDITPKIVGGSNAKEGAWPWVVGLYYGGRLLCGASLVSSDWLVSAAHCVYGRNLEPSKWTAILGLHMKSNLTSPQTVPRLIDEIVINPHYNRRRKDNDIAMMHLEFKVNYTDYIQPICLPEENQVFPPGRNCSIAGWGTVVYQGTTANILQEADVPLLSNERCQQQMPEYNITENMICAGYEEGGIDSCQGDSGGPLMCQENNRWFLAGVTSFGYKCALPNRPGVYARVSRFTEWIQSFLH

Compound	Ki [1] [nM]	Ki (human trypsin) [nM]
N=C(N)c1ccc(OC(=O)c2ccc(CC3(C(=O)N[C@@H](CC(=O)O)C(=O)O)CCC3)s2)c(F)c1 [Compound 1, N-[1{5-(4-amidino-2-fluorophenoxycarbonyl)thiophen-2-ylmethyl}-cyclobutylcarbonyl]-1-aspartic acid trifluoroacetic acid salt]	0.14	0.61
N=C(N)c1ccc(OC(=O)c2ccc(CC3(C(=O)N[C@@H](CC(=O)O)C(=O)O)CCCC3)s2)c(F)c1 [Compound 2, N-{1-[5-(4-amidino-2-fluorophenoxycarbonyl)thiophen-2-ylmethyl]-2-cyclopentylcarbonyl}-1-aspartic acid trifluoroacetic acid salt]	0.73	4.1
CC(C)(Cc1ccc(C(=O)Oc2ccc(C(=N)N)cc2F)s1)C(=O)N[C@@H](CO)C(=O)O [Compound 4]	0.46	0.75
C=CCN(CC(=O)O)C(=O)C(C)(C)Cc1ccc(C(=O)Oc2ccc(C(=N)N)cc2F)s1 [Compound 5]	0.24	0.5
CC(C)(Cc1ccc(C(=O)Oc2ccc(C(=N)N)cc2F)s1)C(=O)NC(C)(C)C(=O)O [Compound 6]	0.69	0.95
CN(CC(=O)O)C(=O)C(C)(C)Cc1ccc(C(=O)Oc2ccc(C(=N)N)cc2F)s1 [Compound 7]	0.41	1.33
CC(C)(Cc1ccc(C(=O)Oc2ccc(C(=N)N)cc2F)s1)C(=O)N1CCC[C@H]1C(=O)O [Compound 8]	0.87	1.69
CC(C)[C@H](NC(=O)C(C)(C)Cc1ccc(C(=O)Oc2ccc(C(=N)N)cc2F)s1)C(=O)O [Compound 9, N-{3-[5-(4-amidino-2-fluoro-phenoxycarbonyl)thiophen-2-yl]-2,2-dimethylpropionyl}-1-valine hydrochloride]	0.79	2.02
CCC(CC)(Cc1ccc(C(=O)Oc2ccc(C(=N)N)cc2F)s1)C(=O)N[C@@H](CO)C(=O)O [Compound 11, N-{3-[5-(4-amidino-2-fluoro-phenoxycarbonyl)thiophen-2-yl]-2,2-diethylpropionyl}-L-serine hydrochloride]	0.41	1.87
CCC(CC)(Cc1ccc(C(=O)Oc2ccc(C(=N)N)cc2F)s1)C(=O)N[C@H](CO)C(=O)O [Compound 12]	0.94	1.78
CCC(CC)(Cc1ccc(C(=O)Oc2ccc(C(=N)N)cc2F)s1)C(=O)NCCC(=O)O [Compound 14]	0.99	2.5
CCC(CC)(Cc1ccc(C(=O)Oc2ccc(C(=N)N)cc2F)s1)C(=O)N[C@H](C(=O)O)C(C)O (some centres unmarked) [Compound 15]	0.84	1.74
CCC(CC)(Cc1ccc(C(=O)Oc2ccc(C(=N)N)cc2F)s1)C(=O)N1CCC[C@H]1C(=O)O [Compound 17]	1.69	6.38
CCC(CC)(Cc1ccc(C(=O)Oc2ccc(C(=N)N)cc2F)s1)C(=O)O [Compound 18, 3-[5-(4-amidino-2-fluorophenoxycarbonyl)thiophen-2-yl]-2,2-diethylpropanoic acid trifluoroacetic acid salt]	1.24	2.49
CCC(CC)(Cc1ccc(C(=O)Oc2ccc(C(=N)N)cc2F)s1)C(=O)N[C@@H](CC(=O)O)C(=O)O [Compound 19]	0.33	0.82
CCCN(CC(=O)O)C(=O)C(CC)(CC)Cc1ccc(C(=O)Oc2ccc(C(=N)N)cc2F)s1 [Compound 20]	2.61	7.91
CCC(CC)(Cc1ccc(C(=O)Oc2ccc(C(=N)N)cc2F)s1)C(=O)N(C)CC(=O)O [Compound 21, N-{3-[5-(4-amidino-2-fluoro-phenoxycarbonyl)thiophen-2-yl]-2,2-diethylpropionyl}-sarcosine hydrochloride]	0.88	1.76
CCC(CC)(Cc1ccc(C(=O)Oc2ccc(C(=N)N)cc2F)s1)C(=O)N1CCC[C@@H]1C(=O)O [Compound 22]	1	3.57
CCC(CC)(Cc1ccc(C(=O)Oc2ccc(C(=N)N)cc2F)s1)C(=O)N[C@H](CC(=O)O)C(=O)O [Compound 25]	0.26	1.04
CC(C)(Cc1ccc(C(=O)Oc2ccc(C(=N)N)cc2F)s1)C(=O)N1CCC(C(=O)O)CC1 [Compound 26]	1.33	3.1
CCC(CC)(Cc1ccc(C(=O)Oc2ccc(C(=N)N)cc2F)s1)C(=O)N[C@@H](C)C(=O)O [Compound 27]	0.73	1.67
CC(C)(Cc1ccc(C(=O)Oc2ccc(C(=N)N)cc2F)s1)C(=O)N1CC[C@@H](C(=O)O)C1 [Compound 33]	1.02	2
CC(C)(Cc1ccc(C(=O)Oc2ccc(C(=N)N)cc2F)s1)C(=O)N[C@H](C(=O)O)C1CCCCC1 [Compound 35]	2.56	3.04
CC(C)(Cc1ccc(C(=O)Oc2ccc(C(=N)N)cc2F)s1)C(=O)N[C@@H](C(=O)O)C1CCCCC1 [Compound 36]	4.7	3.07
CC(C)(Cc1ccc(C(=O)Oc2ccc(C(=N)N)cc2F)s1)C(=O)N[C@H](C(=O)O)c1ccccc1 [Compound 37]	0.96	1.51

Compound	Ki [1] [nM]	Ki (human trypsin) [nM]
CC(C)(Cc1ccc(C(=O)Oc2ccc(C(=N)N)cc2F)s1)C(=O)N[C@@H](C(=O)O)c1ccccc1 [Compound 38]	0.97	1.45
CC(C)(Cc1ccc(C(=O)Oc2ccc(C(=N)N)cc2F)s1)C(=O)Nc1cccnc1 [Compound 39]	7.56	3.6
CC(C)(Cc1ccc(C(=O)Oc2ccc(C(=N)N)cc2F)s1)C(=O)Nc1ccc[nH]c1=O [Compound 40]	6.66	4.54
CCC(CC)(Cc1ccc(C(=O)Oc2ccc(C(=N)N)cc2F)s1)C(=O)N[C@@H](CCC(N)=O)C(=O)O [Compound 42]	1.69	3.88
COc1ccc(NC(=O)C(C)(C)Cc2ccc(C(=O)Oc3ccc(C(=N)N)cc3F)s2)cn1 [Compound 45]	4.13	3.36
CC(C)(Cc1ccc(C(=O)Oc2ccc(C(=N)N)cc2F)s1)C(=O)N1CC(F)(F)C1 [Compound 46]	5.27	3.89
CCC(CC)(Cc1ccc(C(=O)Oc2ccc(C(=N)N)cc2F)s1)C(=O)Nc1ccc(CC(=O)O)cc1 [Compound 48]	2.41	3.35
CC(C)(Cc1ccc(C(=O)Oc2ccc(C(=N)N)cc2F)s1)C(=O)N1CCc2ccc(C(=O)O)cc2C1 [Compound 50]	3.46	3.49
COc1ncccc1NC(=O)C(C)(C)Cc1ccc(C(=O)Oc2ccc(C(=N)N)cc2F)s1 [Compound 51]	3.75	1.87
CCC(CC)(Cc1ccc(C(=O)Oc2ccc(C(=N)N)cc2F)s1)C(=O)NCCC[C@H](N)C(=O)O [Compound 52]	5.53	5.78
CC(C)(Cc1ccc(C(=O)Oc2ccc(C(=N)N)cc2F)s1)C(=O)N1C[C@@H]1C(=O)O [Compound 54]	1.76	1.53
CC(C)(Cc1ccc(C(=O)Oc2ccc(C(=N)N)cc2F)s1)C(=O)NC(CCC(=O)O)(CCC(=O)O)CCC(=O)O [Compound 58]	0.71	1.59
CC(C)(Cc1ccc(C(=O)Oc2ccc(C(=N)N)cc2F)s1)C(=O)Nc1cc(C(=O)O)cc(C(=O)O)c1 [Compound 59]	0.31	0.49
CC(C)(Cc1ccc(C(=O)Oc2ccc(C(=N)N)cc2F)s1)C(=O)N1C[C@H]1C(=O)O [Compound 61]	1.13	0.96
CC(C)(Cc1ccc(C(=O)Oc2ccc(C(=N)N)cc2F)s1)C(=O)NCCc1nnn[nH]1 [Compound 64]	0.53	1.6
CCC(CC)(Cc1ccc(C(=O)Oc2ccc(C(=N)N)cc2F)s1)C(=O)Nc1cc(C(=O)O)cc(C(=O)O)c1 [Compound 66]	0.71	1.58
CCC(CC)(Cc1ccc(C(=O)Oc2ccc(C(=N)N)cc2F)s1)C(=O)Nc1cc(C(=O)O)cc(C(=O)OC)c1 [Compound 67]	3.73	4.4
CC(C)(Cc1ccc(C(=O)Oc2ccc(C(=N)N)cc2F)s1)C(=O)Nc1ccc(C(=O)O)c(C(=O)O)c1 [Compound 68]	0.24	0.21
CC(C)(Cc1ccc(C(=O)Oc2ccc(C(=N)N)cc2F)s1)C(=O)N[C@@H](C(=O)O)c1ccc(O)cc1 [Compound 69]	0.72	1.14
CC(C)(Cc1ccc(C(=O)Oc2ccc(C(=N)N)cc2F)s1)C(=O)N[C@H]1CC[C@@H](C(=O)O)CC1 [Compound 70]	1.11	1.7
CCC(CC)(Cc1ccc(C(=O)Oc2ccc(C(=N)N)cc2F)s1)C(=O)NCCCCCC(=O)O [Compound 71]	4.97	8.01
CC(C)(Cc1ccc(C(=O)Oc2ccc(C(=N)N)cc2F)s1)C(=O)N1CC(C(=O)O)C1 [Compound 72]	0.63	1.85
CC(C)(Cc1ccc(C(=O)Oc2ccc(C(=N)N)cc2F)s1)C(=O)Nc1ccccc1C(=O)O [Compound 73]	2.41	3.65
CC(C)(Cc1ccc(C(=O)Oc2ccc(C(=N)N)cc2F)s1)C(=O)Nc1cc(C(=O)O)ccc1C(=O)O [Compound 75]	0.39	3.72
